What all share (assay type): cell-based, human
Data set [1] has as its system PTEN mRNA. The experiment in a line: Immunoblot of PTEN and phosphorylated Akt after GeneBloc transfection of HeLa cells. As to conditions: 30 nM, 48 h. How it is done:
More particularly, HeLa cells (380.000 cells/plate) and PC-3 cells (450.000 cells/plate) were transfected in parallel on 10 cm plates. Each cell line was treated for 48 h in duplicate samples with 30 nM of PTEN GeneBloc 53 or GBC. The cell extracts were analyzed by immunoblotting for the relative amounts of p110, PTEN and phosphorylated Akt (P*-Akt) as indicated on the right. The band which migrates just above the PTEN signal was caused by unspecific reaction of the secondary antibody.
More particularly, a schematic pathway with PTEN inhibiting PI-3K activity is shown which would normally phosphorylate Akt thus leading to proliferation, survival and migration of HeLa cells as a model system for PTEN +/+ cells. FIG. 9 B presents the Western immunoblot analysis of an experiment studying the influence of PTEN specific antisense oligonucleotide or a control antisense nucleotide designated as mismatch GeneBloc™. PTEN is only present in the control sample, but is absent when PTEN-specific antisense oligonucleotides are used. The successful knockdown of PTEN causes phosphorylation of Akt, indicative of induction of the signalling pathway. […] Growth on matrigel is used as a surrogate in vitro assay for metastatic or invasive cell growth. The cells treated with PTEN third generation antisense oligonucleotide (“PTEN GeneBloc™”) shown in FIG. 9C have a significant growth advantage over the control-treated cells.
Transfections were carried out in 96 well or 10-cm plates (at 30% to 50% confluency) by using various cationic lipids such as Oligofectamine, Lipofectamine (Life Technologies), NC388 (Ribozyme Pharmaceuticals, Inc., Boulder, CO), or FuGene 6 (Roche) according to the manufacturer's instructions. […]
Cells were washed twice with cold phosphate-buffered saline and lysed at 4° C. in lysis buffer containing 20 mM Tris (pH 7.5), 137 mM NaCl, 15% (vol/vol) glycerol, 1% (vol/vol) Nonidet P-40 (NP-40), 2 mM phenylmethylsulfonyl fluoride, […], 20 mM leupeptin, 2 mM benzamidine, 1 mM sodium vanadate, 25 mM […]-glycerol phosphate, 50 mM NaF and 10 mM NaPPi. Lysates were cleared by centrifugation at 14,000× g for 5 minutes and aliquots of the lysates were analyzed for protein expression by Western-blotting: Samples were separated by SDS-PAGE and transferred to nitrocellulose-filters (Schleicher & Schuell). […] Bound antibody was detected using anti-mouse- or anti-rabbit-conjugated horse radish peroxidase (Transduction Laboratories, BD) in TBST, washed, and developed using the SuperSignal West Dura (Pierce) or ECL (Amersham) chemoluminescence substrates.
The effect of GeneBloc induced transient knock down of PTEN expression was to be compared to the loss of PTEN function in human tumor cells. […] After 2 days the cell extracts were analyzed by Western-blotting. […]

For the next data set, the system named is Hela cells. Put plainly: Cell growth on matrigel. As to conditions: 48 h transfection, then 48 to 72 h on matrigel, versus control GeneBloc. From the text: More particularly, a schematic pathway with PTEN inhibiting PI-3K activity is shown which would normally phosphorylate Akt thus leading to proliferation, survival and migration of HeLa cells as a model system for PTEN +/+ cells. FIG. 9 B presents the Western immunoblot analysis of an experiment studying the influence of PTEN specific antisense oligonucleotide or a control antisense nucleotide designated as mismatch GeneBloc™. PTEN is only present in the control sample, but is absent when PTEN-specific antisense oligonucleotides are used. The successful knockdown of PTEN causes phosphorylation of Akt, indicative of induction of the signalling pathway. […] Growth on matrigel is used as a surrogate in vitro assay for metastatic or invasive cell growth. […]
Loss of PTEN function has been correlated with an increased metastatic growth potential in late stage human cancers (Cantley, L. C. and Neel, B. G. (1999). New insights into tumor suppression: PTEN suppresses tumor formation by restraining the phosphoinositide 3-kinase/AKT pathway. Proc Natl Acad Sci U S A 96, 4240-4245; Ali, I. U. (2000). Gatekeeper for endometrium: the PTEN tumor suppressor gene. J Natl Cancer Inst 92, 861-863). […] HeLa cells expressing an inducible version of a constitutively active PI 3-kinase, p110* […] were analyzed in parallel. […]

Data set [2] has as its system PTEN mRNA. The experiment in a line: PTEN knock down by RNAi versus antisense oligonucleotide (Western blot, dose response). How it is done: The cells were infected using any of these two constructs according to the methods described herein above.
The result of this experiment is depicted in FIG. 18. […] As a positive control an antisense oligonucleotide specific for PTEN referred to as GeneBloc 53 (disclosed above) was also applied to the respective expression system at different concentrations (60 nM, 15 nM, 3.75 nM and 0.93 nM).
To further illustrate the impact of RNAi which is specific for PTEN, on the ratio of PTEN to p110 a dose response was generated which is shown in FIG. 19. From FIG. 19 it may be taken that even at the lowest concentration, i. e. 0.03 nM, the PTEN specific RNAi still reduces the ratio of PTEN to p 110 to about one third of the respective control. […] This is in clear contrast to RNAi which is not specific for PTEN.

Take “ucuccuuTTGTTTCTGcuaacga (UCUCCUUTTGTTTCTGCUAACGA; chemistry not fully specified) [PTEN 53, third generation antisense oligonucleotide (GeneBloc) against PTEN]”: in the data set with PTEN mRNA [1], the “PTEN (immunoblot)” value is reported as “degradation of PTEN mRNA” and the “phosphorylated Akt (P*-Akt) (immunoblot)” value was “generation of phosphorylated Akt”. Moreover, in the data set on PTEN mRNA [1] (listed as PTEN GeneBloc 53), the “PTEN (immunoblot)” value is “strong reduction in PTEN protein” and the “phosphorylated Akt (P*-Akt) (immunoblot)” value was “substantial increase in Akt phosphorylation”. The growth on matrigel entry in the data set with Hela cells is “increased potential to form network structures on matrigel and grew better”. For the same substance, in the data set on PTEN mRNA [2] (PTEN knockdown, Western blot), the “concentration required compared to RNAi” value was “requires higher concentrations compared to RNAi”. Further, the “PTEN expression (Western blot)” value with PTEN mRNA [2] (antisense oligonucleotide at 60 nM, 15 nM, 3.75 nM and 0.93 nM) was “allows for a specific knockdown of PTEN”.

(Values after patent US20030135033A1, “Compounds and methods for the identification and/ or validation of a target” (priority 2002, published 2003).)
